Data set [1] is described as follows: xn = mol fraction of the nth substance listed. The settings on record: 298.15 K, 101.3 kPa, Liquid, Vibrating tube method.
The conditions of data set [2]: 298.15 K; 101.33 kPa; Liquid; Vibrating tube method.
Data set [3] in a line: refractive index (Na D-line) (dimensionless). Particulars: 298.15 K; 101.33 kPa; Liquid; Automatic Refractometer.

From the NIST ThermoML archive (doi:10.1016/j.jct.2010.01.008) come the findings set out here.

Numbers after ± are expanded uncertainties.

As usually defined, the mass density is mass per unit of volume. One may read the refractive index as a measure of how strongly the sample bends light.

Consider `Cc1ccccc1` [toluene] + CCCCCCC, for which the mass density in data set [1] (x2 = 0) was found to be 862.17 ± 0.14 kg/m3; in data set [1] (x2 = 0.0974), 838.12 ± 0.28 kg/m3; in data set [1] (x2 = 0.1996), 814.81 ± 0.27 kg/m3; in data set [1] (x2 = 0.2997) it was 793.52 ± 0.26 kg/m3; in data set [1] (x2 = 0.397), 774.31 ± 0.25 kg/m3; in data set [1] (x2 = 0.497) it was 755.94 ± 0.24 kg/m3. The mass density worked out at 738.9 ± 0.24 kg/m3 in data set [1] (x2 = 0.5961), 722.76 ± 0.24 kg/m3 in data set [1] (x2 = 0.6967), 707.78 ± 0.24 kg/m3 in data set [1] (x2 = 0.7958) and 693.24 ± 0.23 kg/m3 in data set [1] (x2 = 0.8973).
Consider `Cc1ccccc1` [toluene] + CCCCCCCCC, for which the mass density in data set [1] (x2 = 0) is recorded as 862.17 ± 0.14 kg/m3.
Turning to `CCCCCCCC` [octane] + Cc1ccccc1, the mass density in data set [1] (x1 = 0.0982) is 838.13 ± 0.27 kg/m3; in data set [1] (x1 = 0.1977), 816.31 ± 0.26 kg/m3; in data set [1] (x1 = 0.2975), 796.62 ± 0.24 kg/m3; in data set [1] (x1 = 0.3983), 778.64 ± 0.23 kg/m3; in data set [1] (x1 = 0.5005) it was 761.92 ± 0.23 kg/m3; in data set [1] (x1 = 0.5988), 747.35 ± 0.22 kg/m3. The mass density in data set [1] (x1 = 0.699) is recorded as 733.63 ± 0.22 kg/m3; in data set [1] (x1 = 0.7966), 721.31 ± 0.22 kg/m3; in data set [1] (x1 = 0.8955), 709.92 ± 0.22 kg/m3; in data set [1] (x1 = 1) it was 698.6 ± 0.19 kg/m3.
In the case of `CCCCCCC` [heptane] + Cc1ccccc1, the mass density in data set [1] (x1 = 1) is recorded as 679.56 ± 0.2 kg/m3.
Turning to `Cc1ccccc1` [toluene] + CCCCCCCC, the mass density in data set [1] (x2 = 0) amounted to 862.17 ± 0.14 kg/m3.
Turning to `CCOS(=O)(=O)[O-].CC[n+]1cccc(C)c1` [1-ethyl-3-methylpyridinium ethylsulfate], the mass density in data set [2] was 1219.61 ± 0.42 kg/m3. Besides, the refractive index in data set [3] was found to be 1.50591 ± 0.00022.
As for `CCCCCCCCC` [nonane] + Cc1ccccc1, the mass density came out at 838.74 ± 0.27 kg/m3 in data set [1] (x1 = 0.096); 817.91 ± 0.25 kg/m3 in data set [1] (x1 = 0.1942); 799.09 ± 0.24 kg/m3 in data set [1] (x1 = 0.2952); 782.63 ± 0.23 kg/m3 in data set [1] (x1 = 0.3954); 768.02 ± 0.23 kg/m3 in data set [1] (x1 = 0.4954); 755.35 ± 0.23 kg/m3 in data set [1] (x1 = 0.5929). The mass density is 743.54 ± 0.24 kg/m3 in data set [1] (x1 = 0.6939), 732.97 ± 0.25 kg/m3 in data set [1] (x1 = 0.7939), 723.28 ± 0.26 kg/m3 in data set [1] (x1 = 0.8947) and 713.99 ± 0.26 kg/m3 in data set [1] (x1 = 1).
